Molecular target: T1, PsmtLPD1 (mtLPD1; PsL) (Lathyrus oleraceus, UniProt P31023)
T1 sequence (P31023 32-501): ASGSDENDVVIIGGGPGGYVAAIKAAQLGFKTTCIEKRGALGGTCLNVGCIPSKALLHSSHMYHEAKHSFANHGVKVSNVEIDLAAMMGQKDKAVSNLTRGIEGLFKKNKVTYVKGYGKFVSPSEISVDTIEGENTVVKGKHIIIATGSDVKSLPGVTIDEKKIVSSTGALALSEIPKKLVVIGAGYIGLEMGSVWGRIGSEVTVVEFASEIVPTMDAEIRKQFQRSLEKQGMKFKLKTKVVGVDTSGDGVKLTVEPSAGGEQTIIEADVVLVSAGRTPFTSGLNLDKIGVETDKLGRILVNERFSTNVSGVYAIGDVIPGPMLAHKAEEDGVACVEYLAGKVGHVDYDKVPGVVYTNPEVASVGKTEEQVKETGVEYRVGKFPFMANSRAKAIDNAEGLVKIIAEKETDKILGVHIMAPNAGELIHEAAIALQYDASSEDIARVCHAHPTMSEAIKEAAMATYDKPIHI
Experiment: spectrophotometric at […] nm, forward direction
Assay type: biochemical

Ki: ~66.1 µM
Structure (SMILES): NC(=O)C1=CN([C@@H]2O[C@H](COP(=O)(O)OP(=O)(O)OC[C@H]3O[C@@H](n4cnc5c(N)ncnc54)[C@H](O)[C@@H]3O)[C@@H](O)[C@H]2O)C=CC1 [NADH]

Source: paper doi:10.1101/2022.04.02.486831v1 (biorxiv, 2022)
